“And” between values parts separate entries of the source, which are not always exact repeats. Equal values may be shown once.
Legend:
Format in all cases: cell-based, rat
[1] = test system: RFPEC glycocalyx (adsorbed BSA); assay: Whole glycocalyx thickness and coverage by BSA immunofluorescence (Example 2); details: Hep III 2 h then 16 h, with or without 59 μg/mL HS
Method: (§1) RFPEC Culture. A rat fat pad endothelial cell (RFPEC) line^37 was utilized, originally isolated from rat epididymal fat pads by Dr. Mia Thi of Albert Einstein College of Medicine (Bronx, N.Y., USA). RFPECs were selected for their ability to naturally express a robust glycocalyx.^38 These ECs were cultured in tissue culture flasks at 37° C. and 5% CO2 in a humidified environment with Dulbecco's Modified Eagle's Medium (DMEM) supplemented with 10% fetal bovine serum (FBS) and 1% penicillin-streptomycin, all purchased from Thermo Fisher Scientific (Waltham, Mass., USA). For 3-(4,5-dimethylthiazol-2-yl)-5-(3-carboxymethoxyphenyl)-2-(4-sulfophenyl)-2H-tetrazolium (MTS) assays (Sigma-Aldrich Co., St Louis, Mo., USA), RFPECs were seeded at 3.7×10^4 cells/cm^2 in tissue culture-treated, 96-well plates (Falcon; Thermo Fisher Scientific) and imaged on a SpectraMax M3 plate reader to show cell viability and metabolic activity. For confocal imaging, RFPECs were seeded onto 12-mm diameter round glass cover slips (Thermo Fisher Scientific) at 1×10^4 cells/cm^2 in tissue culture-treated six-well plates (Falcon; Thermo Fisher Scientific). […]
RFPEC glycocalyx treatments. […] The red fluorescence detected from conjugated Alexa Fluor 647 was attributed to AuNP within the RFPEC monolayers (details are given in the “Confocal imaging and analysis” section). […]

[2] = test system: HS component of RFPEC glycocalyx; assay: HS component thickness and coverage by 10E4 HS immunofluorescence (Example 2)
Method: RFPEC Culture. A rat fat pad endothelial cell (RFPEC) line^37 was utilized, originally isolated from rat epididymal fat pads by Dr. Mia Thi of Albert Einstein College of Medicine (Bronx, N.Y., USA). RFPECs were selected for their ability to naturally express a robust glycocalyx.^38 These ECs were cultured in tissue culture flasks at 37° C. and 5% CO2 in a humidified environment with Dulbecco's Modified Eagle's Medium (DMEM) supplemented with 10% fetal bovine serum (FBS) and 1% penicillin-streptomycin, all purchased from Thermo Fisher Scientific (Waltham, Mass., USA). For 3-(4,5-dimethylthiazol-2-yl)-5-(3-carboxymethoxyphenyl)-2-(4-sulfophenyl)-2H-tetrazolium (MTS) assays (Sigma-Aldrich Co., St Louis, Mo., USA), RFPECs were seeded at 3.7×10^4 cells/cm^2 in tissue culture-treated, 96-well plates (Falcon; Thermo Fisher Scientific) and imaged on a SpectraMax M3 plate reader to show cell viability and metabolic activity. For confocal imaging, RFPECs were seeded onto 12-mm diameter round glass cover slips (Thermo Fisher Scientific) at 1×10^4 cells/cm^2 in tissue culture-treated six-well plates (Falcon; Thermo Fisher Scientific). In both cases, the cells were allowed to grow for 48-60 hours to full confluence before starting the experiment.
RFPEC glycocalyx treatments. For control glycocalyx conditions, RFPEC cultures were grown in DMEM with 10% FBS and 1% penicillin-streptomycin. To generate dysfunctional glycocalyx conditions, the regular culture media of other RFPEC cultures was replaced with two variations of the modified media. For the collapsed glycocalyx configuration, the cells were grown in low serum media that consisted of DMEM with 1% penicillin-streptomycin and only 2% FBS.^1 For the degraded glycocalyx configuration, cultures were pretreated with DMEM/10^% FBS/1% penicillin-streptomycin containing a 2.5×10^−6 IU heparinase III (Hep III) (IBEX Pharmaceutical, Montreal, QC, Canada) enzyme for 2 hours, selectively degrading the HS glycosaminoglycans of the glycocalyx. To simulate a repaired glycocalyx state, the media containing Hep III was replaced with exogenous HS (Celsus Laboratories, Cincinnati, Ohio, USA) dissolved in DMEM/10% FBS/1% penicillin-streptomycin at 59 μg/mL. All RFPEC cultures, including those with untreated, collapsed, degraded, or repaired glycocalyx configurations, were exposed to 550 μg/mL of lyophilized and ultraviolet-sterilized PEG-AuNP during the 16-hour treatment time. Afterward, the free-floating particles were gently washed out before fixation to ensure that only the AuNP entrapped within the glycocalyx would be imaged. The red fluorescence detected from conjugated Alexa Fluor 647 was attributed to AuNP within the RFPEC monolayers (details are given in the “Confocal imaging and analysis” section).
Immunostaining. […]

RFPEC = assay: PEG-AuNP uptake by RFPEC under glycocalyx conditions (confocal red fluorescence); details: repaired glycocalyx (Hep III, then 59 μg/mL exogenous HS); 550 μg/mL PEG-AuNP, 16 hours
Method: as §1, with “activity.” for “activity. For confocal imaging, RFPECs were seeded onto 12-mm diameter round glass cover slips (Thermo Fisher Scientific) at 1×10^4 cells/cm^2 in tissue culture-treated six-well plates (Falcon; Thermo Fisher Scientific).”
PEG-AuNP. […] After dialysis in 12-14 kDa molecular weight cutoff tubes (EMD Millipore, Billerica, Mass., USA) and lyophilization, an Alexa Fluor 647 N-hydroxysuccinimide (NHS) ester (succinimidyl ester) was conjugated onto the NH2 functional groups on the AuNP to allow for visualization under fluorescence. […] PEG-AuNP fluorescence activity was confirmed using a Jobin Yvon Fluoromax 4. […]

[3] = RFPEC, Hep III 2 h then 16 h, with or without 59 μg/mL HS

heparan sulfate [HS]
whole glycocalyx (BSA) coverage of the EC layer [1]: 75.2%+4.0% | whole glycocalyx (BSA) thickness ([1]; mean±SEM): 2.41±0.3 μm | HS coverage of RFPEC, result in words (FIG. 10F legend) [2]: recovered | HS coverage as % of the baseline measurements ([2]; Hep III, Hep III + 59 μg/mL HS): 44% | HS component thickness [2, 3]: 1.2 μm and 1.21±0.31 μm | HS coverage of RFPEC surface [2, 3]: 33.1%+3.7% | PEG-AuNP uptake relative to cells with healthy, intact glycocalyx (RFPEC): 1.3±0.3 fold

From patent publication US20200023001A1, “GlycoFix (Structurally And Functionally Repaired Endothelial Glycocalyx)” (Northeastern University, priority 2018, published 2020)
